# Measured values published in PubChem BioAssay (NCI).
#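 Where inhibition never reached the appropriate level, the endpoint shown equals the highest concentration tested. Otherwise, values were interpolated linearly from a five-concentration, 48-hour dose response in 96-well plates. GI50 = concentration required for 50% inhibition of growth. TGI: total growth inhibition.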
# Assays:
# Assay in all cases: growth of human tumour cells (NCI), 48 h
# PC-3 prostate = tested on: PC-3 prostate
# MDA-MB-435 = tested on: MDA-MB-435
# HS 578T breast = tested on: HS 578T breast
# LXFL 529 NSCLC = tested on: LXFL 529 NSCLC
# KM20L2 colon = tested on: KM20L2 colon
# DMS 114 small cell lung = tested on: DMS 114 small cell lung
# XF 498 CNS = tested on: XF 498 CNS
# MDA-N = tested on: MDA-N
SMILES,GI50 (PC-3 prostate) [µM],TGI (PC-3 prostate) [µM],GI50 (MDA-MB-435) [µM],TGI (MDA-MB-435) [µM],GI50 (HS 578T breast) [µM],TGI (HS 578T breast) [µM],TGI (LXFL 529 NSCLC) [µM],TGI (KM20L2 colon) [µM],TGI (DMS 114 small cell lung) [µM],TGI (XF 498 CNS) [µM],TGI (MDA-N) [µM]
O=C1Cc2cc(CCn3ccnc3)c(Cl)cc2N1,35.6,> 100,3.12,15.2,0.873,9.92,–,–,–,–,–
O=S(=O)(NCCNc1nccc(-c2c(-c3cccc(O)c3)nc3sccn23)n1)c1ccc(F)cc1,5.66,63.5,0.939,11.6,2.93,11.7,–,–,–,–,–
CCCNc1nc(N(C)O)nc(N(C)O)n1,6.66,> 100,4.95,> 100,6.51,> 100,–,–,–,–,–
CCOc1ccc(Cc2nccc3cc(OCC)c(OCC)cc23)cc1OCC,4.41,33.4,5.78,23.1,13.2,57.7,–,–,–,–,–
O=[N+]([O-])c1cccc(C2SCc3nc4ccccc4n32)c1 (stereo unspecified),–,–,–,–,–,–,> 100,> 100,> 100,–,–
CCCOc1ccc(/C(Cl)=C(\C=O)c2ccc(OC)c(OC)c2)cc1OCCC,–,–,–,–,–,–,80.9,> 100,25.3,33.1,–
COc1cc2c(cc1OC)C(CCc1ccc(Cl)cc1)N(C)CC2 (stereo unspecified),20.1,> 100,16.3,41.2,18.3,51.4,–,–,–,–,–
COc1cc2c(cc1OCCCCNC(=O)c1cc3ccccc3[nH]1)N=CC1CCCN1C2=O (stereo unspecified),22,> 100,20.3,74.6,16.1,71.5,–,–,–,–,–
O=C(Nc1cccc(Cl)c1)Nc1cccc(Cl)c1,2.54,> 100,–,–,> 100,> 100,–,–,–,–,–
CC(C)c1cc(C(C)C)c(S(=O)(=O)NN)c(C(C)C)c1,–,–,–,–,–,–,–,> 100,> 100,–,–
CC(=O)NNc1nc(C)c(C(=O)NNC(=O)C(=O)Nc2ccc(C)c(C)c2)s1,–,–,–,–,–,–,> 100,> 100,> 100,–,–
C=C1CC[C@@H]2C(C)(C)[C@@H](O)CC[C@@]2(C)[C@@H]1COc1ccc2ccc(=O)oc2c1,5.71,21.8,13.6,27.6,15.4,49.5,–,–,–,–,–
CC(C)=CC/C=C(/C)[C@H]1CC[C@]2(C)[C@@H]1CC[C@@H]1[C@@]3(C)CCC(=O)NC(C)(C)[C@@H]3CC[C@]12C,7.49,23.9,20.7,48.9,26.3,94.3,–,–,–,–,–
CN(C)CC(C(=O)c1ccccc1)c1ccccc1 (stereo unspecified),4.12,16.9,1.9,7.38,2.19,12.8,–,–,–,–,–
COc1ccc(/C=C2/C(=O)N(C(=O)c3ccccc3O)N=C2C)cc1OC,–,> 100,–,> 100,–,–,> 100,> 100,3.61,> 100,> 100
